Assay: mn = molality of the nth substance listed, in mol/kg
Conditions: 350 kPa, Liquid; for apparent molar heat capacity: Extra sensitive DSC

OC[C@@H](O)[C@H](O)[C@@H](O)CO [xylitol] + O
Conditions | apparent molar heat capacity [J/K/mol] | mass density [kg/m3]
278.15 K, m1 = 0.0499 | 278.9 | 1002.96
278.15 K, m1 = 0.1 | 288.4 | 1005.41
278.15 K, m1 = 0.4001 | 293.3 | 1020.49
278.15 K, m1 = 0.7496 | 297.2 | 1036.91
278.15 K, m1 = 1.001 | 299.5 | 1047.83
278.15 K, m1 = 1.498 | 303.4 | 1067.95
278.15 K, m1 = 1.997 | 301.8 | 1086.45
278.15 K, m1 = 2.701 | 311.1 | 1109.42
283.15 K, m1 = 0.0499 | 296.8 | 1002.63
283.15 K, m1 = 0.1 | 306.1 | 1005.03
283.15 K, m1 = 0.4001 | 310.2 | 1019.9
283.15 K, m1 = 0.7496 | 313.4 | 1036.06
283.15 K, m1 = 1.001 | 315.6 | 1046.82
283.15 K, m1 = 1.498 | 318.5 | 1066.63
283.15 K, m1 = 1.997 | 317.4 | 1084.9
283.15 K, m1 = 2.701 | 325 | 1107.65
288.15 K, m1 = 0.0499 | 310.8 | 1001.96
288.15 K, m1 = 0.1 | 319.8 | 1004.34
288.15 K, m1 = 0.4001 | 323.4 | 1019.04
288.15 K, m1 = 0.7496 | 326.2 | 1035
288.15 K, m1 = 1.001 | 328.1 | 1045.65
288.15 K, m1 = 1.498 | 330.3 | 1065.25
288.15 K, m1 = 1.997 | 328.7 | 1083.35
288.15 K, m1 = 2.701 | 335.7 | 1105.88
293.15 K, m1 = 0.0499 | 322.5 | –
293.15 K, m1 = 0.1 | 331.4 | –
293.15 K, m1 = 0.4001 | 334.8 | –
293.15 K, m1 = 0.7496 | 337.1 | –
293.15 K, m1 = 1.001 | 338.8 | –
293.15 K, m1 = 1.498 | 340.5 | –
293.15 K, m1 = 1.997 | 338.3 | –
293.15 K, m1 = 2.701 | 344.9 | –
298.15 K, m1 = 0.0499 | 332.9 | 999.86
298.15 K, m1 = 0.1 | 341.6 | 1002.2
298.15 K, m1 = 0.4001 | 344.5 | 1016.61
298.15 K, m1 = 0.7496 | 346.5 | 1032.27
298.15 K, m1 = 1.001 | 347.8 | 1042.69
298.15 K, m1 = 1.498 | 349.2 | 1061.92
298.15 K, m1 = 1.997 | 346.7 | 1079.8
298.15 K, m1 = 2.701 | 352.9 | 1101.9
303.15 K, m1 = 0.0499 | 342 | –
303.15 K, m1 = 0.1 | 350.4 | –
303.15 K, m1 = 0.4001 | 352.9 | –
303.15 K, m1 = 0.7496 | 354.6 | –
303.15 K, m1 = 1.001 | 355.8 | –
303.15 K, m1 = 1.498 | 356.9 | –
303.15 K, m1 = 1.997 | 354 | –
303.15 K, m1 = 2.701 | 359.9 | –
308.15 K, m1 = 0.0499 | 349.7 | 996.7
308.15 K, m1 = 0.1 | 358.1 | 999
308.15 K, m1 = 0.4001 | 360.4 | 1013.2
308.15 K, m1 = 0.7496 | 361.7 | 1028.7
308.15 K, m1 = 1.001 | 362.8 | 1038.8
308.15 K, m1 = 1.498 | 363.6 | 1057.9
308.15 K, m1 = 1.997 | 360.6 | 1075.2
308.15 K, m1 = 2.701 | 366.2 | 1097.2
313.15 K, m1 = 0.0499 | 356.5 | –
313.15 K, m1 = 0.1 | 365 | –
313.15 K, m1 = 0.4001 | 367 | –
313.15 K, m1 = 0.7496 | 368.1 | –
313.15 K, m1 = 1.001 | 369.1 | –
313.15 K, m1 = 1.498 | 369.7 | –
313.15 K, m1 = 1.997 | 366.6 | –
313.15 K, m1 = 2.701 | 371.9 | –
318.15 K, m1 = 0.0499 | 362.5 | 992.82
318.15 K, m1 = 0.1 | 370.9 | 995.17
318.15 K, m1 = 0.4001 | 372.9 | 1009.11
318.15 K, m1 = 0.7496 | 373.8 | 1024.37
318.15 K, m1 = 1.001 | 374.7 | 1034.54
318.15 K, m1 = 1.498 | 375.2 | 1053.25
318.15 K, m1 = 1.997 | 372 | 1070.4
318.15 K, m1 = 2.701 | 377.1 | 1092.04
323.15 K, m1 = 0.0499 | 368.1 | –
323.15 K, m1 = 0.1 | 376.3 | –
323.15 K, m1 = 0.4001 | 378.3 | –
323.15 K, m1 = 0.7496 | 379.1 | –
323.15 K, m1 = 1.001 | 379.8 | –
323.15 K, m1 = 1.498 | 380.2 | –
323.15 K, m1 = 1.997 | 377 | –
323.15 K, m1 = 2.701 | 381.9 | –
328.15 K, m1 = 0.0499 | 372.9 | 988.29
328.15 K, m1 = 0.1 | 381.3 | 990.59
328.15 K, m1 = 0.4001 | 383.2 | 1004.39
328.15 K, m1 = 0.7496 | 383.8 | 1019.46
328.15 K, m1 = 1.001 | 384.5 | 1029.53
328.15 K, m1 = 1.498 | 384.7 | 1048.03
328.15 K, m1 = 1.997 | 381.6 | 1064.94
328.15 K, m1 = 2.701 | 386.3 | 1086.4
333.15 K, m1 = 0.0499 | 377.6 | –
333.15 K, m1 = 0.1 | 385.7 | –
333.15 K, m1 = 0.4001 | 387.6 | –
333.15 K, m1 = 0.7496 | 388.2 | –
333.15 K, m1 = 1.001 | 388.8 | –
333.15 K, m1 = 1.498 | 389 | –
333.15 K, m1 = 1.997 | 385.9 | –
333.15 K, m1 = 2.701 | 390.4 | –
338.15 K, m1 = 0.0499 | 382 | 983.12
338.15 K, m1 = 0.1 | 389.8 | 985.45
338.15 K, m1 = 0.4001 | 391.8 | 999.12
338.15 K, m1 = 0.7496 | 392.3 | 1014.03
338.15 K, m1 = 1.001 | 392.9 | 1023.97
338.15 K, m1 = 1.498 | 392.9 | 1042.32
338.15 K, m1 = 1.997 | 389.9 | 1059.03
338.15 K, m1 = 2.701 | 394.2 | 1080.39
343.15 K, m1 = 0.0499 | 385 | –
343.15 K, m1 = 0.1 | 393.6 | –
343.15 K, m1 = 0.4001 | 395.5 | –
343.15 K, m1 = 0.7496 | 395.9 | –
343.15 K, m1 = 1.001 | 396.5 | –
343.15 K, m1 = 1.498 | 396.5 | –
343.15 K, m1 = 1.997 | 393.5 | –
343.15 K, m1 = 2.701 | 397.7 | –
348.15 K, m1 = 0.0499 | 389 | 977.37
348.15 K, m1 = 0.1 | 396.9 | 979.76
348.15 K, m1 = 0.4001 | 398.9 | 993.29
348.15 K, m1 = 0.7496 | 399.3 | 1008.12
348.15 K, m1 = 1.001 | 399.9 | 1017.97
348.15 K, m1 = 1.498 | 399.9 | 1036.22
348.15 K, m1 = 1.997 | 397 | 1052.82
348.15 K, m1 = 2.701 | 400.9 | 1074.02
353.15 K, m1 = 0.0499 | 392 | –
353.15 K, m1 = 0.1 | 400 | –
353.15 K, m1 = 0.4001 | 401.9 | –
353.15 K, m1 = 0.7496 | 402.3 | –
353.15 K, m1 = 1.001 | 402.9 | –
353.15 K, m1 = 1.498 | 402.9 | –
353.15 K, m1 = 1.997 | 400.2 | –
353.15 K, m1 = 2.701 | 403.9 | –
358.15 K, m1 = 0.0499 | 394 | 971.43
358.15 K, m1 = 0.1 | 402.5 | 973.65
358.15 K, m1 = 0.4001 | 404.6 | 986.64
358.15 K, m1 = 0.7496 | 404.9 | 1001.31
358.15 K, m1 = 1.001 | 405.5 | 1011.25
358.15 K, m1 = 1.498 | 405.5 | 1029.33
358.15 K, m1 = 1.997 | 403.2 | 1045.42
358.15 K, m1 = 2.701 | 406.4 | 1066.46
363.15 K, m1 = 0.0499 | 396 | –
363.15 K, m1 = 0.1 | 404 | –
363.15 K, m1 = 0.4001 | 405.9 | –
363.15 K, m1 = 0.7496 | 406.2 | –
363.15 K, m1 = 1.001 | 406.8 | –
363.15 K, m1 = 1.498 | 406.7 | –
363.15 K, m1 = 1.997 | 405.9 | –
363.15 K, m1 = 2.701 | 407.6 | –
368.15 K, m1 = 0.0499 | – | 964.45
368.15 K, m1 = 0.1 | – | 966.77
368.15 K, m1 = 0.4001 | – | 980.22
368.15 K, m1 = 0.7496 | – | 994.89
368.15 K, m1 = 1.001 | – | 1004.67
368.15 K, m1 = 1.498 | – | 1022.74
368.15 K, m1 = 1.997 | – | 1039.27
368.15 K, m1 = 2.701 | – | 1060.25

Reference: the NIST ThermoML archive (doi:10.1016/j.jct.2006.08.009)
